Patent US9855268B2, “Triazolo[4,5-d]pyrimidine derivatives” (Merck Patent GmbH, priority 2013, dated 2018)

Experiments:
GSK3α(h) = GSK3α(h) (Homo sapiens, UniProt P49840); experiment: GSK3α radiometric kinase assay (33P-ATP, phospho GS2 peptide); format: biochemical; settings: read-out: IC50 GSK3α (enzyme assay)
Description: GSK3α(h) is incubated with 8 mM MOPS pH 7,0, 0,2 mM EDTA, 20 μM
[…](p)EDEEE (phosphor GS2 peptide), 10 mM Mg-acetate and [gamma-33P-ATP](specific activity approx. 500 cpm/Pmol, concentration as required). The reaction is initiated by the addition of the MgATP. After incubation for 40 minutes at the room temperature, the Reaction is stopped by the addition of 3% phosphoric acid solution. 10 μL of reaction is then spotted onto a P30 filtermat and washed three times for 5 minutes in 50 mM phosphoric acid and once in methanol prior to drying and scintillation counting.

GCN2 [1] = biological target: T1, GCN2 (Homo sapiens, UniProt Q9P2K8); experiment: Cellular assay of GCN2 activity (phospho-eIF2alpha immunocytochemistry after tryptophanol); format: cell-based; set-up: endogenous in cells; host or cells: U2OS; settings: Human U2OS cells, 2 h compound, 600 μM tryptophanol 30 min
Description: Cellular Assay for the Determination of Compound Activities
Human U2OS cells (2000 cells/well) are seeded into 384-well plates and incubated for 20 hours.
The next day, the cells are treated with the test compounds and incubated for 2 hours. Then, tryptophanol, at a final concentration of 600 μM, is added to the cells and those are incubated for 30 minutes.
The analysis of cellular GCN2 activities is done by immunocytochemistry.
Briefly, cells are fixated on the well surfaces by formaldehyde and permeabilised with Triton X-100.
The analysis and quantification of phosphorylated GCN2 is done by scanning the plates in the Acumen Explorer system (TTPLabtech). The obtained data are normalised against the untreated control wells (DMSO only) and expressed as % effect values. The determination of IC50 values is done by using the Graph Pad Prism software.
Target sequence in this assay (Q9P2K8 whole entry): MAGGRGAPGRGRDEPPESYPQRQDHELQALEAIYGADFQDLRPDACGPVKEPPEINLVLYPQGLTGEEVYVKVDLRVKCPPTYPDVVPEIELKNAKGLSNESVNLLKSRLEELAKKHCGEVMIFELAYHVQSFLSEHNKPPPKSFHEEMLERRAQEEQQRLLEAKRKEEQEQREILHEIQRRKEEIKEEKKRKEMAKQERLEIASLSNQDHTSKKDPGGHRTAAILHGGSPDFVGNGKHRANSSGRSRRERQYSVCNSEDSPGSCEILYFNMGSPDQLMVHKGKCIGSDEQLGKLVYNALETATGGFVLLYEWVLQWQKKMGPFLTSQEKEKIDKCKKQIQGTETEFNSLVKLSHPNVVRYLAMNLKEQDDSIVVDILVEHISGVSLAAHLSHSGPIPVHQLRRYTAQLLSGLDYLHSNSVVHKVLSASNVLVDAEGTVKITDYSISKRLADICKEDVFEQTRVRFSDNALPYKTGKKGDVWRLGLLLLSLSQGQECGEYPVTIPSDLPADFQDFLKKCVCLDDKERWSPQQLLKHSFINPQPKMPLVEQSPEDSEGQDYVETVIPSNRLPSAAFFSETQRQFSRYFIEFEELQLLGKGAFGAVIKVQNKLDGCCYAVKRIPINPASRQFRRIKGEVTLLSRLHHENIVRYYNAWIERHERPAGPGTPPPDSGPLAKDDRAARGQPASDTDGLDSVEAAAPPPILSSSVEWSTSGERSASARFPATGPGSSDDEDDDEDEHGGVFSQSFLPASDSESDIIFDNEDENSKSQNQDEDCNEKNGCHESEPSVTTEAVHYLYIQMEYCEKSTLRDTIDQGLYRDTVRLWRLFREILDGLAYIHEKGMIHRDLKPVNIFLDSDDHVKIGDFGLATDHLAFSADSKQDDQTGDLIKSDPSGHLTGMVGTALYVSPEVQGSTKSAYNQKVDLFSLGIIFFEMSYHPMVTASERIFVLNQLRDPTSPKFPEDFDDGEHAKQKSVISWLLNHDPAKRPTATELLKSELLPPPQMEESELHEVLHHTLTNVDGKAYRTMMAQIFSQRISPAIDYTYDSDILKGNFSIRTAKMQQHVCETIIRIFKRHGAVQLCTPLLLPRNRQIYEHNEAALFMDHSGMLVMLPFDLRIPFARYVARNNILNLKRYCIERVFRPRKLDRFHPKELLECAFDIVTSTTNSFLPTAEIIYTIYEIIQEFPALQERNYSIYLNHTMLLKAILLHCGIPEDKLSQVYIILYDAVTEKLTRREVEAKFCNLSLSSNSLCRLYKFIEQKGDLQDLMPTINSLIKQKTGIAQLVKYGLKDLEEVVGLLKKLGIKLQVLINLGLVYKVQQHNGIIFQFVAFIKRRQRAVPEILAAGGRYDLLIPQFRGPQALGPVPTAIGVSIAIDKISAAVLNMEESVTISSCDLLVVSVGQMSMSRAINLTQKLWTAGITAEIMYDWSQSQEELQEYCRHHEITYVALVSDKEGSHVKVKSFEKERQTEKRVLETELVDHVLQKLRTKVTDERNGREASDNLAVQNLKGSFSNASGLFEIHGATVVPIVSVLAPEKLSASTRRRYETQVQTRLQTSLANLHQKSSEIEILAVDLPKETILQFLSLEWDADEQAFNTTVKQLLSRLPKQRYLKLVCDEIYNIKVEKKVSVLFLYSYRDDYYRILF

GCN2 [2] = biological target: T1, GCN2; experiment: GCN2 enzyme assay (TR-FRET Lanthascreen, GFP-eIF2alpha phosphorylation); format: biochemical; settings: 10 μM ATP, 80 nM GFP-eIF2a, 30 nM GCN2
Method in brief: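 Phosphorylation of GFP-eIF2alpha (80 nM) by GCN2 run at room temperature with 10 μM ATP. After EDTA quench, product quantified by Lanthascreen TR-FRET (antibody–GFP complex, 340 nm excitation).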
Target sequence in this assay (Q9P2K8 whole entry, species assumed): as the sequence (Q9P2K8 whole entry) above

GSK3α(h), sequence (P49840 whole entry): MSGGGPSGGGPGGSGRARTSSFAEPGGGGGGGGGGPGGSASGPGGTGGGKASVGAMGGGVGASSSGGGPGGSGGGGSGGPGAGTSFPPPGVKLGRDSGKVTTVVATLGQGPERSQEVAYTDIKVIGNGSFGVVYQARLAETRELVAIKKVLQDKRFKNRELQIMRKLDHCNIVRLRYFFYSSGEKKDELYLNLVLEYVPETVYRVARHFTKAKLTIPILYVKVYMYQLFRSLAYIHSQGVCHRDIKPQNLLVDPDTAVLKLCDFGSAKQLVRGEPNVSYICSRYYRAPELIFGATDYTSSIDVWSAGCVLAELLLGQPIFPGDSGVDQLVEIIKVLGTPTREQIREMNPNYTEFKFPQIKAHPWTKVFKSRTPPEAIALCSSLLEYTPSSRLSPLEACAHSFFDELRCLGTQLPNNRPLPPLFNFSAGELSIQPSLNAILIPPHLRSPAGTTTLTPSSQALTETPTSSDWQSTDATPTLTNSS

Cc1ccc2cc(-n3nnc4cnc(N[C@@H]5CC[C@@H](O)C5)nc43)ccc2n1 (relative stereo) [A202, (trans)-3-[3-(2-methyl-quinolin-6-yl)-3H-[1,2,3]triazolo[4,5-d]pyrimidin-5-ylamino]-cyclopentanol]
IC50 (GSK3α(h)): < 1000 nM
IC50 (GCN2 [1]): 1000 to 5000 nM
IC50 (GCN2 [2]): < 1000 nM

N#CCCn1cc(-c2ccc(-n3nnc4cnc(N[C@@H]5CC[C@@H](O)C5)nc43)cc2)cn1 (relative stereo) [A214, 3-(4-{4-[5-(trans-3-hydroxy-cyclopentylamino)-[1,2,3]triazolo[4,5-d]pyrimidin-3-yl]-phenyl}-pyrazol-1-yl)-propionitrile]
IC50 (GSK3α(h)): < 1000 nM
IC50 (GCN2 [1]): 1000 to 5000 nM
IC50 (GCN2 [2]): < 1000 nM

NC1CC[C@@H](Nc2ncc3nnn(-c4ccc(-c5cnn(CCO)c5)cc4)c3n2)C1 (stereo in doubt) [A257, 2-(4-{4-[5-((1R,3S)-3-amino-cyclopentylamino)-[1,2,3]triazolo[4,5-d]pyrimidin-3-yl]-phenyl}-pyrazol-1-yl)-ethanol]
IC50 (GSK3α(h)): < 1000 nM
IC50 (GCN2 [1]): 5000 to 10000 nM
IC50 (GCN2 [2]): < 1000 nM

COc1ccc(-n2nnc3cnc(N[C@@H]4CC[C@H](CO)C4)nc32)cc1 [A112, {(1S,3R)-3-[3-(4-methoxy-phenyl)-3H-[1,2,3]triazolo[4,5-d]pyrimidin-5-ylamino]-cyclopentyl}-methanol]
IC50 (GSK3α(h)): < 1000 nM
IC50 (GCN2 [1]): 1000 to 5000 nM
IC50 (GCN2 [2]): < 1000 nM

COc1ccc(-n2nnc3cnc(N[C@@H]4CC[C@@H](CO)C4)nc32)cc1 [A114, {(1R,3R)-3-[3-(4-methoxy-phenyl)-3H-[1,2,3]triazolo[4,5-d]pyrimidin-5-ylamino]-cyclopentyl}-methanol]
IC50 (GSK3α(h)): < 1000 nM
IC50 (GCN2 [1]): 1000 to 5000 nM
IC50 (GCN2 [2]): < 1000 nM

COCCn1cc(-c2ccc(-n3nnc4cnc(N[C@@H]5CC[C@@H](N)C5)nc43)cc2)cn1 [A123, (1R,3R)—N-(3-{4-[1-(2-methoxy-ethyl)-1H-pyrazol-4-yl]-phenyl}-3H-[1,2,3]triazolo[4,5-d]pyrimidin-5-yl)-cyclopentane-1,3-diamine]
IC50 (GSK3α(h)): < 1000 nM
IC50 (GCN2 [1]): < 1000 nM
IC50 (GCN2 [2]): < 1000 nM

N[C@H]1CC[C@H](Nc2ncc3nnn(-c4ccc(OC5CCOCC5)cc4)c3n2)CC1 [A127, N-{3-[4-(tetrahydro-pyran-4-yloxy)-phenyl]-3H-[1,2,3]triazolo[4,5-d]pyrimidin-5-yl}-trans-cyclohexane-1,4-diamine]
IC50 (GSK3α(h)): < 1000 nM
IC50 (GCN2 [1]): 1000 to 5000 nM
IC50 (GCN2 [2]): < 1000 nM

Cn1cc(-c2ccc(-n3nnc4cnc(N[C@H]5CC[C@H](N)CC5)nc43)cc2)cn1 [A129, N-{3-[4-(1-methyl-1H-pyrazol-4-yl)-phenyl]-3H-[1,2,3]triazolo[4,5-d]pyrimidin-5-yl}-trans-cyclohexane-1,4-diamine]
IC50 (GSK3α(h)): < 1000 nM
IC50 (GCN2 [1]): 1000 to 5000 nM
IC50 (GCN2 [2]): < 1000 nM

CN(C)CCC(=O)N1CC[C@@H](Nc2ncc3nnn(-c4ccc(-c5cnn(C)c5)cc4)c3n2)C1 [A130, 3-dimethylamino-1-((R)-3-{3-[4-(1-methyl-1H-pyrazol-4-yl)-phenyl]-3H-[1,2,3]triazolo[4,5-d]pyrimidin-5-ylamino}-pyrrolidin-1-yl)-propan-1-one]
IC50 (GSK3α(h)): < 1000 nM
IC50 (GCN2 [1]): 5000 to 10000 nM
IC50 (GCN2 [2]): < 1000 nM

CN1CCN(CCC(=O)N2CC[C@@H](Nc3ncc4nnn(-c5ccc(-c6cnn(C)c6)cc5)c4n3)C2)CC1 [A131, 3-(4-methyl-piperazin-1-yl)-1-((R)-3-{3-[4-(1-methyl-1H-pyrazol-4-yl)-phenyl]-3H-[1,2,3]triazolo[4,5-d]pyrimidin-5-ylamino}-pyrrolidin-1-yl)-propan-1-one]
IC50 (GSK3α(h)): < 1000 nM
IC50 (GCN2 [1]): 5000 to 10000 nM
IC50 (GCN2 [2]): < 1000 nM

COc1ccc(-n2nnc3cnc(N[C@@H]4CC[C@@H](C(N)=O)C4)nc32)cc1 [A140, (1R,3R)-3-[3-(4-methoxy-phenyl)-3H-[1,2,3]triazolo[4,5-d]pyrimidin-5-ylamino]-cyclopentanecarboxylic acid amide]
IC50 (GSK3α(h)): < 1000 nM
IC50 (GCN2 [1]): 1000 to 5000 nM
IC50 (GCN2 [2]): < 1000 nM

Cc1nc2ccc(-n3nnc4cnc(N[C@@H]5CC[C@H](C(N)=O)C5)nc43)cc2o1 [A141, (1S,3R)-3-[3-(2-methyl-benzoxazol-6-yl)-3H-[1,2,3]triazolo[4,5-d]pyrimidin-5-ylamino]-cyclopentanecarboxylic acid amide]
IC50 (GSK3α(h)): < 1000 nM
IC50 (GCN2 [1]): 5000 to 10000 nM
IC50 (GCN2 [2]): < 1000 nM

NC(=O)[C@H]1CC[C@@H](Nc2ncc3nnn(-c4ccc5ncccc5c4)c3n2)C1 [A189, (1S,3R)-3-(3-quinolin-6-yl-3H-[1,2,3]triazolo[4,5-d]pyrimidin-5-ylamino)-cyclopentanecarboxylic acid amide]
IC50 (GSK3α(h)): < 1000 nM
IC50 (GCN2 [1]): 1000 to 5000 nM
IC50 (GCN2 [2]): < 1000 nM

NC(=O)[C@@H]1CC[C@@H](Nc2ncc3nnn(-c4ccc5ncccc5c4)c3n2)C1 [A190, (1R,3R)-3-(3-quinolin-6-yl-3H-[1,2,3]triazolo[4,5-d]pyrimidin-5-ylamino)-cyclopentanecarboxylic acid amide]
IC50 (GSK3α(h)): < 1000 nM
IC50 (GCN2 [1]): 5000 to 10000 nM
IC50 (GCN2 [2]): < 1000 nM

O[C@@H]1CC[C@@H](Nc2ncc3nnn(-c4ccc(-c5cnn(CCN6CCCC6)c5)cc4)c3n2)C1 [A213, (1R,3R)-3-(3-{4-[1-(2-pyrrolidin-1-yl-ethyl)-1H-pyrazol-4-yl]-phenyl}-3H-[1,2,3]triazolo[4,5-d]pyrimidin-5-ylamino)-cyclopentanol]
IC50 (GSK3α(h)): < 1000 nM
IC50 (GCN2 [1]): 1000 to 5000 nM
IC50 (GCN2 [2]): < 1000 nM

N[C@H]1CC[C@H](Nc2ncc3nnn(-c4ccc(-c5cnn(CCn6cccn6)c5)cc4)c3n2)CC1 [A215, N-(3-{4-[1-(2-pyrazol-1-yl-ethyl)-1H-pyrazol-4-yl]-phenyl}-3H-[1,2,3]triazolo[4,5-d]pyrimidin-5-yl)-cyclohexane-1,4-diamine]
IC50 (GSK3α(h)): < 1000 nM
IC50 (GCN2 [1]): 5000 to 10000 nM
IC50 (GCN2 [2]): < 1000 nM

NC(=O)[C@H]1CC[C@@H](Nc2ncc3nnn(-c4ccc(-c5cnn(CCN6CCCC6)c5)cc4)c3n2)C1 [A216, (1S,3R)-3-(3-{4-[1-(2-pyrrolidin-1-yl-ethyl)-1H-pyrazol-4-yl]-phenyl}-3H-[1,2,3]triazolo[4,5-d]pyrimidin-5-ylamino)-cyclopentanecarboxylic acid amide]
IC50 (GSK3α(h)): < 1000 nM
IC50 (GCN2 [1]): 1000 to 5000 nM
IC50 (GCN2 [2]): < 1000 nM

COc1ccc(-n2nnc3cnc(N[C@@H]4CC[C@@H](C(=O)N5CCN(C)CC5)C4)nc32)cc1 [A241, {(1R,3R)-3-[3-(4-methoxy-phenyl)-3H-[1,2,3]triazolo[4,5-d]pyrimidin-5-ylamino]-cyclopentyl}-(4-methyl-piperazin-1-yl)-methanone]
IC50 (GSK3α(h)): < 1000 nM
IC50 (GCN2 [1]): 1000 to 5000 nM
IC50 (GCN2 [2]): < 1000 nM

CN1CCN(CCNC(=O)[C@H]2CC[C@@H](Nc3ncc4nnn(-c5ccc6ncccc6c5)c4n3)C2)CC1 [A242, (1S,3R)-3-(3-quinolin-6-yl-3H-[1,2,3]triazolo[4,5-d]pyrimidin-5-ylamino)-cyclopentanecarboxylic acid [2-(4-methyl-piperazin-1-yl)-ethyl]-amide]
IC50 (GSK3α(h)): < 1000 nM
IC50 (GCN2 [1]): 1000 to 5000 nM
IC50 (GCN2 [2]): < 1000 nM

Cc1ccc2cc(-n3nnc4cnc(N[C@@H]5CC[C@@H](C(=O)NCCC(C)(C)O)C5)nc43)ccc2n1 [A253, (1R,3R)-3-[3-(2-methyl-quinolin-6-yl)-3H-[1,2,3]triazolo[4,5-d]pyrimidin-5-ylamino]-cyclopentanecarboxylic acid (3-hydroxy-3-methyl-butyl)-amide]
IC50 (GCN2 [1]): < 1000 nM
IC50 (GCN2 [2]): < 1000 nM

N[C@H]1CC[C@H](Nc2ncc3nnn(-c4ccc(-c5cnn(CCO)c5)cc4)c3n2)CC1 [A256, 2-(4-{4-[5-(trans-4-amino-cyclohexylamino)-[1,2,3]triazolo[4,5-d]pyrimidin-3-yl]-phenyl}-pyrazol-1-yl)-ethanol]
IC50 (GCN2 [1]): 5000 to 10000 nM
IC50 (GCN2 [2]): < 1000 nM

NC(=O)[C@@H]1CC[C@@H](Nc2ncc3nnn(-c4ccc(O)cc4)c3n2)C1 [A276, (1R,3R)-3-[3-(4-hydroxy-phenyl)-3H-[1,2,3]triazolo[4,5-d]pyrimidin-5-ylamino]-cyclopentanecarboxylic acid amide]
IC50 (GCN2 [1]): 5000 to 10000 nM
IC50 (GCN2 [2]): < 1000 nM

COC(=O)CCOc1ccc(-n2nnc3cnc(N[C@@H]4CC[C@@H](C(N)=O)C4)nc32)cc1 [A292, 3-{4-[5-((1R,3R)-3-carbamoyl-cyclopentylamino)-[1,2,3]triazolo[4,5-d]pyrimidin-3-yl]-phenoxy}-propionic acid methyl ester]
IC50 (GCN2 [1]): 1000 to 5000 nM
IC50 (GCN2 [2]): < 1000 nM

Cn1cc(CNc2ncc3nnn(-c4ccc5ncccc5c4)c3n2)cn1 [B1, (1-methyl-1H-pyrazol-4-ylmethyl)-(3-quinolin-6-yl-3H-[1,2,3]triazolo[4,5-d]pyrimidin-5-yl)-amine]
IC50 (GCN2 [1]): 5000 to 10000 nM
IC50 (GCN2 [2]): < 1000 nM
